According to ChEMBL document CHEMBL4321845, “Discovery and Characterization of Potent Pan-Genotypic HCV NS5A Inhibitors Containing Novel Tricyclic Central Core Leading to Clinical Candidate” (J Med Chem, 2019):

Experiments:
[1] = Ratio of dug level in liver to plasma of Wistar rat at 10 mg/kg, po measured at 4 hrs by LC-MS/MS analysis; format: ADME, organism-based
[2] = Cmax in rat at 30 mg/kg, po measured up to 24 hrs by LC-MS/MS analysis; format: ADME, organism-based; parameters: dose 30 mg/kg, route oral; conditions: in vivo
[3] = Clearance in rat at 1 mg/kg, iv measured up to 24 hrs by LC-MS/MS analysis; format: ADME, organism-based; conditions: in vivo
CYP2D6 = CYP2D6 (Homo sapiens, UniProt P10635); assay: Inhibition of CYP2D6 in pooled human liver microsomes at 10 uM pre-incubated for 5 mins before NADPH addition and measured after 10 mins by UPLC-MS/MS analysis relative to control; format: ADME
Chain of CYP2D6 (P10635 whole entry): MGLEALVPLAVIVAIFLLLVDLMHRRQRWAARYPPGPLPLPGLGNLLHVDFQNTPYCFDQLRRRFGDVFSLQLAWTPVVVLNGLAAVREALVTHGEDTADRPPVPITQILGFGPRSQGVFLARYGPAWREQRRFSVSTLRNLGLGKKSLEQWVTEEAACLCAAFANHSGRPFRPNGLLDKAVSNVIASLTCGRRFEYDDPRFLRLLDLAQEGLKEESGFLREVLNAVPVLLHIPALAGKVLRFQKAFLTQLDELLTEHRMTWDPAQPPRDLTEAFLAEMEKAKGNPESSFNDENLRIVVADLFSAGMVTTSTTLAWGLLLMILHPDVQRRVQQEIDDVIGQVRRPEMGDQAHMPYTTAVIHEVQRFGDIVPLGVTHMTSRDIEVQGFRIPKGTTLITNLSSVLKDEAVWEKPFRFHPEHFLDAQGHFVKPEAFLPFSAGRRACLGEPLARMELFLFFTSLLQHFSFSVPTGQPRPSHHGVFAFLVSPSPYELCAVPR

[4] = Drug level in liver of Wistar rat at 10 mg/kg, po measured at 4 hrs by LC-MS/MS analysis; format: ADME, organism-based; conditions: read-out: Drug uptake
[5] = Drug level in liver of Wistar rat at 10 mg/kg, po measured up to 8 hrs by LC-MS/MS analysis; format: ADME, organism-based; conditions: in vivo
[6] = AUC(last) in beagle dog at 1 mg/kg, iv measured up to 24 hrs by LC-MS/MS analysis; format: ADME, organism-based, Canis lupus familiaris; parameters: dose 1 mg/kg, route intravenous, time 0 - last; conditions: in vivo
[7] = Toxicity in beagle dog assessed as induction of emesis at 10 mg/kg measured up to 24 hrs; format: organism-based, Canis lupus familiaris; conditions: in vivo
[8] = Clearance in beagle dog at 1 mg/kg, iv measured up to 24 hrs by LC-MS/MS analysis; format: ADME, organism-based, Canis lupus familiaris; conditions: in vivo
[9] = AUC (last) in rat at 10 mg/kg, po measured up to 24 hrs by LC-MS/MS analysis; format: ADME, organism-based; parameters: dose 10 mg/kg, time 0 - last, route oral; conditions: in vivo
[10] = Protein binding in human plasma; format: ADME, cell-free; conditions: read-out: PPB
[11] = AUC (last) in rat at 30 mg/kg, po measured up to 24 hrs by LC-MS/MS analysis; format: ADME, organism-based; parameters: dose 30 mg/kg, time 0 - last, route oral; conditions: in vivo
[12] = Drug metabolism in human liver microsomes assessed as metabolic rate at 1 uM preincubated for 5 mins before NADPH addition and measured up to 30 mins by LC-MS/MS analysis; format: ADME, Microsome; conditions: 0.5 h
[13] = Tmax in rat at 100 mg/kg, po measured up to 24 hrs by LC-MS/MS analysis; format: ADME, organism-based; conditions: in vivo
[14] = Half life in beagle dog at 1 mg/kg, iv measured up to 24 hrs by LC-MS/MS analysis; format: ADME, organism-based, Canis lupus familiaris; conditions: in vivo
[15] = Cytotoxicity in human HEK293 cells assessed as inhibition of cell growth at 3 uM incubated for 72 hrs by CCK8 assay relative to control; format: cell-based; conditions: read-out: GI
[16] = Cmax in rat at 100 mg/kg, po measured up to 24 hrs by LC-MS/MS analysis; format: ADME, organism-based; parameters: dose 100 mg/kg, route oral; conditions: in vivo
[17] = Cmax in rat at 10 mg/kg, po measured up to 24 hrs by LC-MS/MS analysis; format: ADME, organism-based; parameters: dose 10 mg/kg, route oral; conditions: in vivo
[18] = Cytotoxicity in human HuH7 cells assessed as inhibition of cell growth at 3 uM incubated for 72 hrs by CCK8 assay relative to control; format: cell-based, Huh-7; conditions: read-out: GI
[19] = Protein binding in rat plasma; format: ADME, cell-free; conditions: read-out: PPB
[20] = Drug metabolism in rat liver microsomes assessed as metabolic rate at 1 uM preincubated for 5 mins before NADPH addition and measured up to 30 mins by LC-MS/MS analysis; format: ADME, Microsome; conditions: 0.5 h
[21] = Oral bioavailability in rat at 10 mg/kg measured up to 24 hrs by LC-MS/MS analysis; format: ADME, organism-based; conditions: in vivo
[22] = Cytotoxicity in human HepG2 cells assessed as inhibition of cell growth at 3 uM incubated for 72 hrs by CCK8 assay relative to control; format: cell-based; conditions: read-out: GI
CYP2C9 = CYP2C9 (Homo sapiens, UniProt P11712); assay: Inhibition of CYP2C9 in pooled human liver microsomes at 10 uM pre-incubated for 5 mins before NADPH addition and measured after 10 mins by UPLC-MS/MS analysis relative to control; format: ADME
Chain of CYP2C9 (P11712 whole entry): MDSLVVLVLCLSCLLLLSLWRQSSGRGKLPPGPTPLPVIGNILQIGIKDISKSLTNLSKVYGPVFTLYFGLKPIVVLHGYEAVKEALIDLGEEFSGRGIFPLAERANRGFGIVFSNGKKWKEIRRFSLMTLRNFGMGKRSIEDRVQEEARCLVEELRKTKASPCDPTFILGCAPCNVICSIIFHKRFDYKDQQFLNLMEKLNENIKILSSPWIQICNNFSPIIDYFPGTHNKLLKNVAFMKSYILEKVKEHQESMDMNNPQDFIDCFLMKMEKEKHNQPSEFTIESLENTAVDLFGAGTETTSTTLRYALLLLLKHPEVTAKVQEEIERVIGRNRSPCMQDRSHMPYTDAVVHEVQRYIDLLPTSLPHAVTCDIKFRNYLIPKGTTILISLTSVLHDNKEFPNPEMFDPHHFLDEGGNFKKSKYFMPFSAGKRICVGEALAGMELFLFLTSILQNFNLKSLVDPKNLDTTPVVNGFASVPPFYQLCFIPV

[23] = Cytotoxicity in human HEK293 cells assessed as inhibition of cell growth at 10 uM incubated for 72 hrs by CCK8 assay relative to control; format: cell-based; conditions: read-out: GI
[24] = Drug level in plasma of Wistar rat at 10 mg/kg, po measured at 4 hrs by LC-MS/MS analysis; format: ADME, organism-based
[25] = Tmax in rat at 30 mg/kg, po measured up to 24 hrs by LC-MS/MS analysis; format: ADME, organism-based; conditions: in vivo
[26] = Half life in rat at 1 mg/kg, iv measured up to 24 hrs by LC-MS/MS analysis; format: ADME, organism-based; conditions: in vivo
[27] = AUC (last) in beagle dog at 10 mg/kg, po measured up to 24 hrs by LC-MS/MS analysis; format: ADME, organism-based, Canis lupus familiaris; parameters: dose 10 mg/kg, time 0 - last, route oral; conditions: in vivo
[28] = AUC (last) in rat at 100 mg/kg, po measured up to 24 hrs by LC-MS/MS analysis; format: ADME, organism-based; parameters: dose 100 mg/kg, time 0 - last, route oral; conditions: in vivo
[29] = Volume of distribution at steady state in beagle dog at 1 mg/kg, iv measured up to 24 hrs by LC-MS/MS analysis; format: ADME, organism-based, Canis lupus familiaris; conditions: in vivo, read-out: Vdss
[30] = Cytotoxicity in human HepG2 cells assessed as inhibition of cell growth at 10 uM incubated for 72 hrs by CCK8 assay relative to control; format: cell-based; conditions: read-out: GI
[31] = Cmax in beagle dog at 10 mg/kg, po measured up to 24 hrs by LC-MS/MS analysis; format: ADME, organism-based, Canis lupus familiaris; parameters: dose 10 mg/kg, route oral; conditions: in vivo
[32] = Volume of distribution at steady state in rat at 1 mg/kg, iv measured up to 24 hrs by LC-MS/MS analysis; format: ADME, organism-based; conditions: in vivo, read-out: Vdss
[33] = Tmax in rat at 10 mg/kg, po measured up to 24 hrs by LC-MS/MS analysis; format: ADME, organism-based; conditions: in vivo
CYP3A4 = CYP3A4 (Homo sapiens, UniProt P08684); assay: Inhibition of CYP3A4 in pooled human liver microsomes at 10 uM pre-incubated for 5 mins before NADPH addition and measured after 10 mins by UPLC-MS/MS analysis relative to control; format: ADME
Chain of CYP3A4 (P08684 whole entry): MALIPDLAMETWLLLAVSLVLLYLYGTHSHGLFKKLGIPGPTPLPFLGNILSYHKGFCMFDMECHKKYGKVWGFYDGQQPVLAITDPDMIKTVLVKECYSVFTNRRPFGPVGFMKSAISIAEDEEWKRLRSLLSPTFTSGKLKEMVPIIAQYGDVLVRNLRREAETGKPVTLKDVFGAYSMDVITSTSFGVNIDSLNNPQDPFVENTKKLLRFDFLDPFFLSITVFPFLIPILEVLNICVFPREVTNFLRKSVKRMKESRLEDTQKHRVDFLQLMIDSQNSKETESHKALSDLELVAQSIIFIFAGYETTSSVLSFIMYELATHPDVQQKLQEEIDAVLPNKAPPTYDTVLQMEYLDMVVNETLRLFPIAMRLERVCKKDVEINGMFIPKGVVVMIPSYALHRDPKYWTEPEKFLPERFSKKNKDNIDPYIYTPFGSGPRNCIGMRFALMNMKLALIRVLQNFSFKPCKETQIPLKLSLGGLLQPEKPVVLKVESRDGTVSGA

[34] = AUC(last) in rat at 1 mg/kg, iv measured up to 24 hrs by LC-MS/MS analysis; format: ADME, organism-based; parameters: dose 1 mg/kg, route intravenous, time 0 - last; conditions: in vivo
[35] = Oral bioavailability in beagle dog at 10 mg/kg measured up to 24 hrs by LC-MS/MS analysis; format: ADME, organism-based, Canis lupus familiaris; conditions: in vivo

Question: Which Kp at 4 h [1] does the source give for `COC(=O)N[C@H](C(=O)N1CCC[C@H]1c1ncc(-c2ccc3c(c2)CCc2cc(-c4cnc([C@@H]5CCCN5C(=O)[C@@H](NC(=O)OC)C(C)C)[nH]4)sc2-3)[nH]1)C(C)C` here?
Answer: 6

Question: And the Cmax [2]?
Answer: 14 µM

Question: And the clearance [3]?
Answer: 0.6 L/h/kg

Question: And the inhibition at 10 min, 10 µM (CYP2D6)?
Answer: 36%

Question: What about the concentration at 4 h [4] of the same compound?
Answer: 7.4 µM

Question: And the Drug uptake [5]?
Answer: Active

Question: What about the AUC(0-t) at 24 h [6] of the same compound?
Answer: 4 µM·h

Question: What about the Activity [7] of the same compound?
Answer: Toxic

Question: What about the clearance [8] of the same compound?
Answer: 0.3 L/h/kg

Question: And the AUC(0-t) at 24 h [9]?
Answer: 6 to 24 µM·h

Question: And the fraction unbound [10]?
Answer: < 0.01

Question: And the AUC(0-t) at 24 h [11]?
Answer: 77 µM·h

Question: And the Drug metabolism [12]?
Answer: 0.01 nmol/min/mg

Question: What about the Tmax [13] of the same compound?
Answer: 2 to 4 h

Question: What about the half-life [14] of the same compound?
Answer: 4 h

Question: What about the inhibition at 72 h, 3 µM [15] of the same compound?
Answer: 2%

Question: And the Cmax [16]?
Answer: 43 µM

Question: And the Cmax [17]?
Answer: 1.6 to 6 µM

Question: What about the inhibition at 72 h, 3 µM [18] of the same compound?
Answer: 2%

Question: What about the fraction unbound [19] of the same compound?
Answer: < 0.01

Question: And the Drug metabolism [20]?
Answer: 0.01 nmol/min/mg

Question: And the bioavailability [21]?
Answer: 30%

Question: What about the inhibition at 72 h, 3 µM [22] of the same compound?
Answer: 0%

Question: What about the inhibition at 10 min, 10 µM (CYP2C9) of the same compound?
Answer: 35%

Question: And the inhibition at 72 h, 10 µM [23]?
Answer: 28%

Question: What about the concentration at 4 h [24] of the same compound?
Answer: 1.25 µM

Question: And the Tmax [25]?
Answer: 1 to 4 h

Question: And the half-life [26]?
Answer: 1.5 h

Question: And the AUC(0-t) at 24 h [27]?
Answer: 11 to 93 µM·h

Question: What about the AUC(0-t) at 24 h [28] of the same compound?
Answer: 468 µM·h

Question: What about the Vd [29] of the same compound?
Answer: 1 L/kg

Question: And the inhibition at 72 h, 10 µM [30]?
Answer: 6%

Question: What about the Cmax [31] of the same compound?
Answer: 6 µM

Question: What about the Vd [32] of the same compound?
Answer: 1.1 L/kg

Question: What about the Tmax [33] of the same compound?
Answer: 0.25 to 2 h

Question: And the inhibition at 10 min, 10 µM (CYP3A4)?
Answer: 56%

Question: What about the AUC(0-t) at 24 h [34] of the same compound?
Answer: 2 µM·h

Question: And the bioavailability [35]?
Answer: 37 to 100%
